Assay results reported in patent US11406620B2, “Use of carbamate compound for preventing or treating diseases associated with increase in late sodium current” (SK BIOPHARMACEUTICALS CO., LTD., priority 2017, dated 2022).

Experiments:
[1] = target: hNav1.5 sodium channel, fast current (Homo sapiens, UniProt Q14524); test: Whole cell patch clamp, fast sodium current of hNav1.5 in HEK293 cells; conditions: pH 7.4
Procedure: (§1) To study the […] Nav1.5 channel, a cell line stably expressing […] (Gene ID: 6331, https://www.ncbi.nlm.nih.gov/gene/6331) encoding a human Nav1.5 channel in HEK293 cells was used.
(§2) Pulse-protocol uses a protocol that gives a −15 mV stimulus for 385 ms at a holding voltage of −120 mV, and then returns to a holding voltage of −120 mV, and the current generated with the −15 mV stimulus (fast current) and the current just before returning to −120 mV (late current) was measured.
(§3) The composition of the external solution used in the experiment is as follows: 137 mM NaCl, 4 mM KCl, 1.8 mM CaCl2) mM, 1 mM MgCl2, 10 mM HEPES, 11 mM D-Glucose, pH 7.4 (NaOH), 280 mOsm.
(§4) The composition of the internal solution used in the experiment is as follows: 130 mM CsCl, 1 mM MgCl2, 7 mM NaCl, 5 mM HEPES, 5 mM EGTA, pH 7.2 (CsOH), 270 mOsm.

[2] = target: hNav1.5 sodium channel, late current (Homo sapiens, UniProt Q14524); test: Whole cell patch clamp, late sodium current of hNav1.5 in HEK293 cells (veratridine-activated); conditions: human, pH 7.4
Procedure: as §1, §2, §3, §4

[3] = target: human recombinant sodium ion channel Nav1.5 (hNav1.5), late current (Homo sapiens, UniProt Q14524); test: as above
Procedure: as §1, §2, §3, §4

[4] = HEK293 cells stably expressing human Nav1.5 (SCN5A)

hNav1.5 sodium channel, fast current, sequence (Q14524 whole entry): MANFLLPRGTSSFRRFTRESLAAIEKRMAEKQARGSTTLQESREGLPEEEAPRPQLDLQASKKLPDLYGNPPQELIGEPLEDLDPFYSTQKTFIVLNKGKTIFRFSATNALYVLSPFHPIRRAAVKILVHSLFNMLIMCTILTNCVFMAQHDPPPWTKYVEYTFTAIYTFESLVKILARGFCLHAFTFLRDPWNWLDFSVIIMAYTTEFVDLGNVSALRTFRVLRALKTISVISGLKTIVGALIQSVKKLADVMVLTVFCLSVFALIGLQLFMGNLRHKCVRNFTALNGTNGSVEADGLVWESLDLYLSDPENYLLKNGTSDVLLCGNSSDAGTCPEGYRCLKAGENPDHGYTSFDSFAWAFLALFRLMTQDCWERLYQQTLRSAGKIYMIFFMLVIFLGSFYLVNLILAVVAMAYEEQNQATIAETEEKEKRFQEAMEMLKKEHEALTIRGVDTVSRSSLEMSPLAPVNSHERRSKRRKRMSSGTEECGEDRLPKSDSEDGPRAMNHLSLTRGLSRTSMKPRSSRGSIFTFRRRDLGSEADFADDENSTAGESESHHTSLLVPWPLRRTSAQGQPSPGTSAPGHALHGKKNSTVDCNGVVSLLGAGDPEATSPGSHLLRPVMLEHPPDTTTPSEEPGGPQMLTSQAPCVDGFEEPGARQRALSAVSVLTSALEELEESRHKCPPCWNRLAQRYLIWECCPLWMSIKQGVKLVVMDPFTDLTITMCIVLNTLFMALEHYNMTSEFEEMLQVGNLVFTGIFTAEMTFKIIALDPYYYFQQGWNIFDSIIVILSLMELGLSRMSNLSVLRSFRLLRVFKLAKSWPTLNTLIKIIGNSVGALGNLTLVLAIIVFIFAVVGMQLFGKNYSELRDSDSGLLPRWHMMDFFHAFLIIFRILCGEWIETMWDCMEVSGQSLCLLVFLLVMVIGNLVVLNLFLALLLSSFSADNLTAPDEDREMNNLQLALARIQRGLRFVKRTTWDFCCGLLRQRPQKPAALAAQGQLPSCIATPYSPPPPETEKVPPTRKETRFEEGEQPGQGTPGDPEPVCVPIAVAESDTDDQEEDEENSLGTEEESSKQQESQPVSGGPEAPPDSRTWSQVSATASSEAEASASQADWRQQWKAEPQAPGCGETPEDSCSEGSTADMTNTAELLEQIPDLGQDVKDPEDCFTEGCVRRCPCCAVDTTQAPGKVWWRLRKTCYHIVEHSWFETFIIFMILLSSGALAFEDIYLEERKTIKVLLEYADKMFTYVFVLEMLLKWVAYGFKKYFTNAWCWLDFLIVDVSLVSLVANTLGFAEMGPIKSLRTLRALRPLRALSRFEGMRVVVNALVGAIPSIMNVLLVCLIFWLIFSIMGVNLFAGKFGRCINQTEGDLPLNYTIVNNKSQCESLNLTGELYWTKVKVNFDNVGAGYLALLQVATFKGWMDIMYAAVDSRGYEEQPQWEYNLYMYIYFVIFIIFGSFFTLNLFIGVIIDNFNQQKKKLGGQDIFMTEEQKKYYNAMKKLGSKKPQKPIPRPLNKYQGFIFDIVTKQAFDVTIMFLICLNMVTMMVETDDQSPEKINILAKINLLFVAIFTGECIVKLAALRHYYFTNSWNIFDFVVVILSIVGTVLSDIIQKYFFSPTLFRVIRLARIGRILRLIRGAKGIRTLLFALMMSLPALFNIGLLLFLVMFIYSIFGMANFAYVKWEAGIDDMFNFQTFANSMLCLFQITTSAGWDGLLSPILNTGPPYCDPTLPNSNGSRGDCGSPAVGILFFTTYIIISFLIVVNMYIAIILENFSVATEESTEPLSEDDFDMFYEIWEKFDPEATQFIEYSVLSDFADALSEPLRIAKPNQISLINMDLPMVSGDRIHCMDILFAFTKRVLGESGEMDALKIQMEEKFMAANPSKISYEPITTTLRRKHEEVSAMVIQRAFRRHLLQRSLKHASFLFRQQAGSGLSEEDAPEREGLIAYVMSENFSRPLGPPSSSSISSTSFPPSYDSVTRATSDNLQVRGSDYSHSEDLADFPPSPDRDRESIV
hNav1.5 sodium channel, late current, sequence (Q14524 whole entry): as above

Compound	inhibition at 10 μM [1, 4]	inhibition at 30 μM [1, 4]	inhibition at 100 μM [1, 4]	inhibition at 300 μM [1, 4]	inhibition at 10 μM [2, 4]	inhibition at 30 μM [2, 4]	inhibition at 100 μM [2, 4]	inhibition at 300 μM [2, 4]	Inhibition ratio of late current/fast current ([3]; 10 μM)	Inhibition ratio of late current/fast current ([3]; 30 μM)	Inhibition ratio of late current/fast current ([3]; 100 μM)	Inhibition ratio of late current/fast current ([3]; 300 μM)	also measured
NC(=O)N1c2ccccc2C=Cc2ccccc21 [Carbamazepine]	7.7%	12.3%	24.5%	51.4%	20.4%	36.2%	65.4%	86.9%	2.6	2.9	2.7	1.7	
Nc1nnc(-c2cccc(Cl)c2Cl)c(N)n1 [Lamotrigine, lamotrigine]	8.3%	16.6%	29%	51.2%	10.7%	32.9%	56.7%	80.1%	1.3	2.0	2.0	1.6	
NC(=O)O[C@@H](Cn1ncnn1)c1ccccc1Cl [Test compound, carbamic acid (R)-1-(2-chlorophenyl)-2-tetrazol-2-yl-ethyl ester]									3.8	4.2	2.6	1.9	inhibition at 10 μM [1]: 3%; inhibition at 30 μM [1]: 5.7%; inhibition at 100 μM [1]: 13%; inhibition at 300 μM [1]: 26.2%; inhibition at 10 μM [2]: 11.4%; inhibition at 30 μM [2]: 24%; inhibition at 100 μM [2]: 33.9%; inhibition at 300 μM [2]: 49.8%; Selectivity of inhibition of late versus fast sodium current (in words) ([3]; at a concentration in the drug effective concentration range, compared to the comparative compounds): inhibited the late sodium current more selectively than the fast sodium current
